Measurements from patent US20080286213A1, “Pharmaceuticals for treating or preventing oral diseases” (HAWLEY & HAZEL (BVI) COMPANY LIMITED, priority 2007, published 2008).

Experiments:
IL-1β (interleukin) = assay: LUMINEX liquid-phase chip analysis of KB cell supernatant, IL-1β; type: cell-based, human; details: KB cells; the larger the value, the stronger the anti-inflammatory ability; concentration not given
Experimental: (§1) Anti-inflammatory activity was assessed using the KB cell (the epidermis cancer cell in human oral cavity). During the experiment, the KB cell inoculated in the cultivating plate was treated with or without positive control or compound morusin. After the treatment, the supernatant of the cultivating medium was collected and stored in −80° C. refrigerator. Inflammation was assessed by measuring several inflammation markers: Prostaglandin E2 (PGE2) in the supernatant was detected by Enzyme-linked immunsorbent assay, and LUMINEX™ multifunctional liquid-phase chip analysis system was used for the detection of granulocyte […] colony stimulating factor (GM-CSF), tumor necrosis factor-alpha (TNF-α), and interleukins 1-beta and 6 (IL-1β and IL-6).
(§2) LUMINEX™ multifunctional liquid-phase chip analyses of GM-CSF, TNF-α, IL-1 and IL-6: The 96-well plate was enclosed with enclosing liquid for 30 minutes. Fluorescent microspheres were added into the 96-well plate after dilution. The standard and the samples to be measured were added, and incubated overnight at 4° C. The next day, the supernatant was discarded and 50 μL GM-CSF, TNF-α, IL-1β and IL-6 antibodies were added to each well. After being rinsed for 4 times, the 96-well plate was placed in a shaking table, which was in ambient temperature, to keep the plate away from light for 1 hour. […]

[1] = tested on: Actinomyces viscosus (A. v) ATCC 27044; assay: MIC by micro-dilution method; type: cell-based; details: no unit in table; dilution series 250-0.12 mg/L, ceiling 250 ppm; 37°C, 18-24 h
Experimental: (§3) A single colony was picked from the Trypticase Digested Soybean peptone agar blood plate (TSA5B) of ordinarily stored bacteria species and used to inoculate corresponding broth culture medium, which was cultivated in a microaerobic environment (P.g needs anaerobic cultivation) with 95% air, 5% CO2 at 37.0° C.±1.0° C., wherein S.m was cultivated for 18-24 h, and the species were cultivated for 40-48 h. Then corresponding broth cultivate medium was used to adjust the turbidity of the bacteria suspension to 0.5^# McFarland standard, equivalent to 1.0×10^8 CFU/mL.
(§4) The operating steps were:
(§5) a. Preparation of the stock solution of antibacterial pharmaceutical: 1% stock solution of various antibacterial pharmaceuticals was prepared with 100% pure ethanol as solvent. The prepared stock solution was filtered to eliminate bacteria, and was distributed into small portions to be used.
(§6) b. Range of measured concentration: the present experiment used 250 ppm as the ceiling measured concentration of the anti-bacterial pharmaceutical.
(§7) c. Measuring method: micro-dilution method.
(§8) First, 100 μL broth medium was added to each well of the 96-well plate, then 100 μL sterile anti-bacteria pharmaceutical solution, which was diluted 10-fold (1000 mg/L), was added to each hole of the first column. Then each well of the first column was mixed repeatedly for 7-8 times using a multi-channel micropipet, and 100 μL sample was transferred to the second column after sufficiently mixing the pharmaceutical with TSB. After being similarly mixed for 7-8 times, 100 μL sample was transferred to the third column, and likewise to the wells of the remaining columns. Thus the concentration of the pharmaceutical was gradiently diluted 2-fold between the columns, from 500 mg/L in the first column to 0.24 mg/L in the last column (the 12th column).
(§9) The bacteria to be tested and standard bacteria were prepared as above. Both bacteria solutions were diluted with broth medium to a bacteria content of about 10^6 CFU/mL. Then 100 μL was inoculated into each well of the 96-well plate containing the anti-bacterial pharmaceutical. Thus the final diluted concentrations of the anti-bacteria pharmaceutical in each column were 250, 125, 62.5 . . . 0.12 mg/L, and the final inoculation quantity is about […] in each well. The 96-well plate was placed on a microshaker and shaken for 1 min to mix the solutions in each well. The microwell plate was covered and sealed with adhesive paper to reduce the evaporation during the incubation process. The plate was placed in a humid box, cultivated in microaerobic environment with 95% air, 5% CO2 (or in anaerobic environment with 90% N2, 5% H2, 5% CO2) at 37.0° C.±1.0° C. for 18-24 h. The 96-well plate is placed under an enzyme-labeling instrument. The growth characteristics of the tested bacteria were compared with the standard bacteria to determine the MIC, which was the lowest anti-bacterial pharmaceutical concentration contained in the well without bacterial growth.

[2] = tested on: Actinomyces naeslundii (A. n) ATCC 12104; assay: MIC by micro-dilution method; type: cell-based; details: no unit in table; dilution series 250-0.12 mg/L, ceiling 250 ppm; 37°C, 18-24 h
Experimental: as §3, §4, §5, §6, §7, §8, §9

[3] = tested on: Actinobacillus actinomycetemcomitans (A. a) ATCC 43717; assay: MIC by micro-dilution method; type: cell-based; details: no unit in table; dilution series 250-0.12 mg/L, ceiling 250 ppm; 37°C, 18-24 h
Experimental: as §3, §4, §5, §6, §7, §8, §9

[4] = tested on: Fusobacterium nucleatum subsp. Polymorphum (F. n) ATCC 10953; assay: MIC by micro-dilution method; type: cell-based; details: no unit in table; dilution series 250-0.12 mg/L, ceiling 250 ppm; 37°C, 18-24 h
Experimental: as §3, §4, §5, §6, §7, §8, §9

[5] = tested on: Porphyromonas gingivalis (P. g) ATCC 33277; assay: MIC by micro-dilution method; type: cell-based; details: no unit in table; dilution series 250-0.12 mg/L, ceiling 250 ppm; anaerobic, 37°C, 18-24 h
Experimental: as §3, §4, §5, §6, §7, §8, §9

[6] = tested on: Streptococcus sanguis (S. sa) ATCC 10556; assay: MIC by micro-dilution method; type: cell-based; details: no unit in table; dilution series 250-0.12 mg/L, ceiling 250 ppm; 37°C, 18-24 h
Experimental: as §3, §4, §5, §6, §7, §8, §9

[7] = tested on: Streptococcus mutans (S. m) ATCC 25175; assay: MIC by micro-dilution method; type: cell-based; details: no unit in table; dilution series 250-0.12 mg/L, ceiling 250 ppm; 37°C, 18-24 h
Experimental: as §3, §4, §5, §6, §7, §8, §9

[8] = tested on: TNF-α (Tumor Necrosis Factor); assay: LUMINEX liquid-phase chip analysis of KB cell supernatant, TNF-α; type: cell-based, human; details: KB cells; the larger the value, the stronger the anti-inflammatory ability; concentration not given
Experimental: as §1, §2

IL-6 (interleukin) = assay: LUMINEX liquid-phase chip analysis of KB cell supernatant, IL-6; type: cell-based, human; details: KB cells; the larger the value, the stronger the anti-inflammatory ability; concentration not given
Experimental: as §1, §2

GM-CSF = assay: LUMINEX liquid-phase chip analysis of KB cell supernatant, GM-CSF; type: cell-based, human; details: KB cells; the larger the value, the stronger the anti-inflammatory ability; concentration not given
Experimental: as §1, §2

Prostaglandin E2 (PGE2) = assay: PGE2 enzyme-linked immunosorbent assay in KB cell supernatant; type: cell-based, human; details: oral KB cell, PGE2 in supernatant by ELISA
Experimental: as §1

In the case of `CC(C)=CCc1c(-c2ccc(O)cc2O)oc2c3c(cc(O)c2c1=O)OC(C)(C)C=C3` [Morusin, 2-(2,4-dihydroxyphenyl)-5-hydroxy-8,8-dimethyl-3-(3-methyl-2-butenyl)-4H,8H-Benzo(1,2-b:3,4-b′)dipyran-4-one], the “anti-inflammatory effect, IL-1β (interleukin)” value (IL-1β (interleukin)) is reported as 20%, the “MIC, A. v ATCC 27044” value [1] is reported as 2.4 and the “MIC, A. n ATCC 12104” value [2] is reported as 1.9. The “MIC, A. a ATCC 43717” value [3] was 2.4, the “MIC, F. n ATCC 10953” value [4] was 15.6 and the “MIC, P. g ATCC 33277” value [5] was 1.9. For the same compound, the “MIC, S. sa ATCC 10556” value [6] was 3.9, the “MIC, S. m ATCC 25175” value [7] was 3.9 and the “anti-inflammatory effect, TNF-α (Tumor Necrosis Factor)” value [8] was 91%. The “anti-inflammatory effect, IL-6 (interleukin)” value (IL-6 (interleukin)) was 49%, the “anti-inflammatory effect, GM-CSF” value (GM-CSF) was 9% and the “50% inhibitory concentration (Prostaglandin E2 result)” value (Prostaglandin E2 (PGE2)) was 0.02 ppm.

For `Oc1cc(Cl)ccc1Oc1ccc(Cl)cc1Cl` [Triclosan], the “anti-inflammatory effect, IL-1β (interleukin)” value (IL-1β (interleukin)) was 7%, the “MIC, A. v ATCC 27044” value [1] was 3.9 and the “MIC, A. n ATCC 12104” value [2] was 3.9. For the same compound, the “MIC, A. a ATCC 43717” value [3] was 1.95, the “MIC, F. n ATCC 10953” value [4] was 7.8 and the “MIC, P. g ATCC 33277” value [5] was 7.8. For the same compound, the “MIC, S. sa ATCC 10556” value [6] was 7.8, the “MIC, S. m ATCC 25175” value [7] was 3.9 and the “anti-inflammatory effect, TNF-α (Tumor Necrosis Factor)” value [8] was 81%. For the same compound, the “anti-inflammatory effect, IL-6 (interleukin)” value (IL-6 (interleukin)) was 31%, the “anti-inflammatory effect, GM-CSF” value (GM-CSF) was 5% and the “50% inhibitory concentration (Prostaglandin E2 result)” value (Prostaglandin E2 (PGE2)) was roughly 0.02 ppm.
